Test results taken from patent US9062070B2, “Inhibitors of the renal outer medullary potassium channel” (Merck Sharp & Dohme Corp., priority 2011, dated 2015).
pIC50: −log10 of the molar value.

Legend:
[1] = target: hROMK (hKir1.1) (Homo sapiens (Human), UniProt P48048); experiment: Thallium Flux Assay (ROMK channel functional thallium flux, FLIPR-Tetra); assay type: cell-based; details: HEK293 cells stably expressing hROMK (hKir1.1)
Protocol: HEK293 cells stably expressing hROMK (hKir1.1) were grown at 37° C. in a 10% CO2 humidified incubator in complete growth media: Dulbecco's Modified Eagle Medium supplemented with non-essential amino acids, Penicillin/Streptomycin/Glutamine, G418 and FBS. At >80% confluency, aspirate the media from the flask and rinse with 10 mL Calcium/Magnesium-free PBS. Add 5 mL of 1× trypsin (prepared in Ca/Mg Free PBS) to T-225 flask and return flask to 37° C./CO2 incubator for 2-3 minutes. To dislodge the cell, gently bang the side of the flask with your hand. Triturate the cells completely and then transfer the cells to 25 mL complete media. Centrifuge at 1,500 rpm for 6 min followed by resuspension in complete growth media and determine cell concentration. For typical re-seeding, 4E6 cells/T-225 flask will attain>80% confluency in 4 days. Under ideal growth conditions and appropriate tissue culture practices, this cell line is stable for 40-45 passages.
• FluxOR™ Reagent (Component A) • FluxOR™ Assay Buffer (Component B)—10× Concentrate • PowerLoad™ Concentrate (Component C)—100× Concentrate • Probenecid (Component D)—Lyophilized sample is kept at −20° C. Water soluble, 100× after solubilization in 1 mL water. Store at 4° C. • FluxOR™ Chloride-free Buffer (Component E)—5× Concentrate • Potassium sulfate (K2SO4) Concentrate (Component F)—125 mM in water. Store at 4° C. • Thallium sulfate (Tl2SO4) Concentrate (Component G)—50 mM in water. Store at 4° C. • DMSO (dimethyl sulfoxide, Component H)—1 mL (100%) Reagent Preparation: FluxOR Working Solutions • 1000× FluxOR™ Reagent: Reconstitute a vial of component A in 100 μl DMSO; Mix well; Store 10 μl aliquots at −20° C. • 1× FluxOR™ Assay Buffer: Dilute Component B 10-fold with water; Adjust pH to 7.4 with Hepes/NaOH; Filter and store at 4° C. • Probenecid/Assay Buffer: 100 mL of 1× FluxOR™ Assay Buffer; 1 mL of reconstituted component D; Store at 4° C. • Loading Buffer (per microplate): 10 μl 1000× FluxOR™ Reagent; 100 μl component C; 10 mL Probenecid/Assay Buffer • Compound Buffer (per microplate): 20 mL Probenecid/Assay Buffer; 0.3 mM ouabain (10 mM ouabain in water can be stored in amber bottle/aluminum foil at room temperature); Test compound • 1× FluxOR™ Chloride-Free Buffer: Prepare 1× working solution in water. Can be stored at room temperature • Stimulant Buffer (prepared at 5× final concentration in 1× FluxOR™ Chloride-Free Buffer): 7.5 mM Thallium sulfate and 0.75 mM Potassium sulfate (to give a final assay concentration of 3 mM Thallium/0.3 mM Potassium). Store at 4° C. when not in use. If kept sterile, this solution is good for months. Assay Protocol—
The ROMK channel functional thallium flux assay is performed in 384 wells, using the FLIPR-Tetra instrument. HEK-hKir1.1 cells are seeded in Poly-D-Lysine microplates and kept in a 37° C.-10% CO2 incubator overnight. On the day of the experiment, the growth media is replaced with the FluxOR™ reagent loading buffer and incubated, protected from light, at ambient temperature (23-25° C.) for 90 min. The loading buffer is replaced with assay buffer±test compound followed by 30 min incubation at ambient temperature, where the Thallium/Potassium stimulant is added to the microplate.
• 1. Seed HEK-hKir1.1 cells (50 μl at 20,000 cells/well) in 384-well PDL coated Microplates • 2. Allow cells to adhere overnight in humidified 37° C./10% CO2 incubator • 3. Completely remove cell growth media from microplate and replace with 25 μl loading buffer • 4. Incubate Microplate at room temperature, protected form light, for 90 min • 5. Remove loading buffer and replace with 25 μl 1× Assay Buffer±test compound. • 6. Incubate microplate at room temperature, protected form light, for 30 min • 7. At FLIPR-Tetra 384: Add stimulant (Thallium/Potassium) solution to microplate and monitor fluorescence. Excitation=400 nm, Emission=460 & 580 nm. Collect data for ˜10 min. Data Calculation—

[2] = target: Kir1.1 (ROMK1) (Homo sapiens (Human), UniProt P48048); experiment: Electrophysiology Assay (whole cell voltage clamp, IonWorks Quattro); assay type: cell-based; details: Chinese hamster ovary cells stably expressing Kir1.1; block during voltage step to 0 mV
Kir1.1 (ROMK1), sequence (P48048 whole entry): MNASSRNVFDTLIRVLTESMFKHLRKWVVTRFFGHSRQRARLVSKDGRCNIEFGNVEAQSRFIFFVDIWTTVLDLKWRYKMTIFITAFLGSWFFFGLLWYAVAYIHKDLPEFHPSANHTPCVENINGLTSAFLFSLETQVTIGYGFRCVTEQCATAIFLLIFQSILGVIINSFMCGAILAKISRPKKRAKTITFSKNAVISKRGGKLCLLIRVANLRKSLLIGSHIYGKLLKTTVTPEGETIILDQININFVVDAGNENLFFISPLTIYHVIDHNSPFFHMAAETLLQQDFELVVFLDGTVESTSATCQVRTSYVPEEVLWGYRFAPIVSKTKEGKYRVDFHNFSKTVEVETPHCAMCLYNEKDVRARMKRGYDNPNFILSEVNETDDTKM
Protocol: Block of Kir1.1 (ROMK1) currents was examined by whole cell voltage clamp (Hamill et. al. […] Prior to an experiment, Kir1.1 expression was induced by overnight incubation with 1 mM sodium butyrate. […] After centrifugation, the cell pellet was resuspended in approximately 4.0 mL of bath solution and placed in the IonWorks instrument. The intracellular solution consisted of (in mM): 80 K gluconate, 40 KCl, 20 KF, 3.2 MgCl2, 3 EGTA, 5 Hepes, pH 7.4. […] Amphotericin B (Sigma A-4888) was prepared as a 40 mg/mL solution in DMSO. Voltage protocols and current recordings were performed using the IonWorks HT software/hardware system. […] No correction for liquid junction potentials was used. The test pulse, consisting of a 100 ms step to 0 mV from a holding potential of −70 mV, followed by a 100 ms voltage ramp from −70 mV to +70 mV, was applied before and after a 6 min compound incubation period. Test compounds were prepared by diluting DMSO stock solutions into the bath solution at 3× the final concentration and placed in the instrument in 96-well polypropylene plates. Current amplitudes were measured using the IonWorks software. To assess compound potency, the fractional block during the voltage step to 0 mV was calculated in Microsoft Excel (Microsoft, Redmond, Calif.), and dose-response curves were fitted with Igor Pro 4.0 (WaveMetrics, Lake Oswego, Oreg.).

hROMK (hKir1.1), sequence (P48048 whole entry): as above

Compound | pIC50 [1] | pIC50 [2]
COc1cc(F)c([C@H]2CN3CCN(C(=O)C4CCc5nc(-n6cnnn6)ccc54)C[C@@H]3CO2)cc1C#N (stereo partly shown) [Example 77] | 6.40 | 6.54
N#Cc1cc([C@@H]2CN3CCN(C(=O)C4CCc5nc(-n6cnnn6)ncc54)C[C@H]3CO2)ccc1F (stereo partly shown) [Example 79] | 6.68 | 6.72
N#Cc1cc([C@@H]2CN3CCN(C(=O)C4CCc5nc(-n6cnnn6)ncc54)C[C@@H]3CO2)ccc1F (stereo partly shown) [Example 80] | 6.59 | 6.92
N#Cc1c(F)ccc([C@@H]2CN3CCN(C(=O)C4CCc5nc(-n6cnnn6)ncc54)C[C@@H]3CO2)c1Cl (stereo partly shown) [Example 81] | 6.77 | 7.22
N#Cc1c(F)ccc([C@@H]2CN3CCN(C(=O)C4CCc5nc(-n6cnnn6)ncc54)C[C@@H]3CO2)c1Cl (stereo partly shown) [Example 82] | 6.85 | 7.30
N#Cc1c(F)ccc([C@H]2CN3CCN(C(=O)C4CCc5nc(-n6cnnn6)ncc54)C[C@@H]3CO2)c1Cl (stereo partly shown) [Example 83] | 6.44 | 7.10
Cc1c([C@@H]2CN3CCN(C(=O)C4CCc5cc(-n6cnnn6)cnc54)C[C@@H]3CO2)ccc(F)c1C#N (stereo partly shown) [Example 91] | 6.26 | 6.85
Cc1c([C@H]2CN3CCN(C(=O)C4CCc5cc(-n6cnnn6)ncc54)C[C@H]3CO2)ccc(C#N)c1F (stereo partly shown) [Example 93] | 6.37 | 6.74
Cc1c([C@H]2CN3CCN(C(=O)C4CCc5cc(-n6cnnn6)ncc54)C[C@H]3CN2)ccc(F)c1C#N (stereo partly shown) [Example 97] | 6.80 | 7.05
Cc1c([C@@H]2CN3CCN(C(=O)C4CCc5nc(-n6cnnn6)ccc54)C[C@H]3CN2)ccc(F)c1C#N (stereo partly shown) [Example 98] | 6.41 | 6.77
Cc1c([C@@H]2CN3CCN(C(=O)C4CCc5cc(-n6cnnn6)cnc54)C[C@H]3CN2)ccc(F)c1C#N (stereo partly shown) [Example 99] | 6.37 | 6.46
Cc1c([C@@H]2CN3CCN(C(=O)C4CCc5cc(-n6cnnn6)cnc54)C[C@H]3CN2)ccc(F)c1C#N (stereo partly shown) [Example 100] | 6.12 | 6.55
Cc1c([C@H]2CN3CCN(C(=O)C4CCc5nc(-n6cnnn6)ncc54)C[C@H]3CN2)ccc(F)c1C#N (stereo partly shown) [Example 102] | 6.35 | 7.00
Cc1c([C@H]2CN3CCN(C(=O)C4CCc5cc(-n6cnnn6)ncc54)C[C@@H]3CN2)ccc(F)c1C#N (stereo partly shown) [Example 103] | 6.74 | 6.96
Cc1c([C@H]2CN3CCN(C(=O)C4CCc5cc(-n6cnnn6)ncc54)C[C@@H]3CN2)ccc(F)c1C#N (stereo partly shown) [Example 104] | 6.44 | 6.92
Cc1c([C@@H]2CN3CCN(C(=O)C4CCc5cc(-n6cnnn6)ncc54)C[C@@H]3CN2)ccc(F)c1C#N (stereo partly shown) [Example 105] | 6.85 | 7.10
Cc1c([C@@H]2CN3CCN(C(=O)C4CCc5cc(-n6cnnn6)ncc54)C[C@@H]3CN2)ccc(F)c1C#N (stereo partly shown) [Example 106] | 6.40 | 6.92
